Laboratory results published in patent US20090247465A1, “Novel Use of Bivalirudin in the Treatment of Acute Coronary Syndrome” (priority 2008, published 2009).

How the values were obtained:
[1] = system: patients with moderate and high risk NSTE-ACS; conditions: ACUITY; bivalirudin monotherapy vs UFH/enoxaparin plus a GP IIb/IIIa inhibitor; cited from earlier work
[2] = in vivo; cited from earlier work
[3] = system: patients with moderate and high risk NSTE-ACS; test: ACUITY analysis: clinical outcomes at 30 days, consistent UFH/enoxaparin plus GP IIb/IIIa inhibitor vs switch to bivalirudin, and antithrombin-naïve patients; conditions: human, in vivo
From the text: A total of 4215 patients received prior antithrombin therapy with either UFH or enoxaparin before randomization. Of these, 2137 were randomized to receive the same antithrombin plus a GP IIb/IIIa inhibitor (consistent), while 2078 patients were randomized to receive bivalirudin (switch). There were 2889 patients naïve to antithrombin therapy at randomization, and of these, 1462 patients were randomized to UFH/enoxaparin plus a GP IIb/IIIa inhibitor and 1427 to bivalirudin monotherapy (FIG. 1).
At 30 days, there was no difference in composite ischemia between the two groups: 6.9% for patients switched to bivalirudin vs. 7.4% for patients remaining on consistent UFH/enoxaparin ([RR 0.93; 0.75-1.16], p=0.52). […] Transfusions were also lower in the patients switched to bivalirudin vs. patients remaining on consistent UFH/enoxaparin (1.5% vs. 2.6% [RR 0.60; 0.39-0.92], p=0.02). (Table 2, FIG. 2).
Tables 3a and 3b show clinical outcomes according to type of heparin therapy (UFH or enoxaparin) in patients on prior antithrombin therapy and in patients naive to antithrombin therapy. […]

Compound | absolute reduction in major bleeding [1] | relative reduction in major bleeding [1] | doses not causing adverse effects [2] | Major bleeding, number of patients [3] | Transfusion, number of patients [3]
CC[C@H](C)[C@H](NC(=O)[C@H](CCC(=O)O)NC(=O)[C@H](CCC(=O)O)NC(=O)[C@H](Cc1ccccc1)NC(=O)[C@H](CC(=O)O)NC(=O)CNC(=O)[C@H](CC(N)=O)NC(=O)CNC(=O)CNC(=O)CNC(=O)CNC(=O)[C@@H]1CCCN1C(=O)[C@H](CCCNC(=N)N)NC(=O)[C@@H]1CCCN1C(=O)[C@H](N)Cc1ccccc1)C(=O)N1CCC[C@H]1C(=O)N[C@@H](CCC(=O)O)C(=O)N[C@@H](CCC(=O)O)C(=O)N[C@@H](Cc1ccc(O)cc1)C(=O)N[C@@H](CC(C)C)C(=O)O [Bivalirudin, bivalirudin] | 2.7% | 47% | up to 7.5 mg/kg |  | 
enoxaparin |  |  |  | 42 | 19
